Source: patent US7879914B2, “Methods for treating viral infections using polyamine analogs” (Pathlogica LLC, priority 2005, dated 2011)

What was measured:
[1] = tested on: CD14/CD16+ blood macrophages from normal (uninfected) patients; assay: Susceptibility assay: killing of CD14/CD16+ blood macrophages from normal patients; assay type: cell-based, human; conditions: FIG. 4, ex vivo
Procedure: The following procedures/protocols were used in some of the examples that follow. All steps were performed in a biological safety cabinet using Universal Precautions for handling human blood samples and standard aseptic techniques.
The PBMC for the susceptibility assays was prepared in accordance with the following procedures. A cell culture medium was prepared by mixing RPMI+10% FBS+1% sodium pyruvate and filter sterilized using a filter unit with 0.22 micron pore size. The cell pellet was then resuspended in 3 ml of the cell culture medium. The suspension was gently mixed by slowly pipetting up and down 3 times. The cells were counted using a hemacytometer and the cell density was adjusted to 1×10^6 cells/mL in the cell culture medium, followed by mixing by slowly pipetting up and down 3 times. The cells were incubated in a 50 mL sterile polypropylene tube, at 37° C. and 5% CO2 for 1-2 days. […]
Fluorescence emission measurements were obtained with a flow cytometer, using the following instrument settings in BD FACSCAN: 1) Detector: FL1=533 amps; FL2=570 amps; and FL3=550 amps; 2) Threshold=FSC 180; 3) Compensation: FL1 10.5% FL2; FL2 26.1% FL1; FL2 8.3% FL3; FL3 25.4% FL2; 4) Count=50,000 UNgated events.
The ability of polyamine analogs MGBG and CG47 to kill CD14/CD16+ blood macrophages in HIV infected and normal patients was measured. […]

CD14+ CD16+ monocytes = assay: In vitro killing of cultured rhesus macaque monocytes; assay type: cell-based
Procedure: Dose response experiments with MGBG were performed to assess its ability to kill CD14+ CD16+ monocytes in nonadherent PBMC cultures.

SIVmac251 [2] = assay: SIVmac251-infected, CD8-depleted rhesus macaques, escalating doses; assay type: in vivo, rhesus macaque
Procedure: For these experiments, rhesus macaques were infected with SIVmac251 and depleted of CD8+ T lymphocytes by administration of a humanized CD8-depleting antibody. […] These monkeys were then treated with escalating doses of MGBG.
The animals were treated with MGBG (PA-001) beginning five days post infection (p.i.) with 200 mg/m^2 PA-001, and then treated 7 and 14 days later with 300 mg/m^2 and 400 mg/m^2, respectively of PA-001.
Rhesus macaques similar to those described in Example 9 were used for these studies. An SIVmac251-infected, CD8-depleted monkey was treated with PA-001 (MGBG) beginning five days p.i. with 200 mg/m^2 PA-001, and then treated 7 and 14 days later with 300 mg/m^2 and 400 mg/m^2, respectively of PA-001. A control monkey was SIVmac251-infected and CD8-depleted, but not treated with PA-001. Blood macrophages from control and treated monkeys were sorted every week into three subsets: CD14+/16−, CD14+/16+ and CD14−/16+ where CD14− indicates a low level of CD14 expression. Quantitative SIV PCR analysis of the sorted subsets was subsequently performed.

SIVmac251 [3] = assay: SIVmac251-infected, CD8-depleted animals, 250 mg/m^2 on alternate weeks; assay type: in vivo, rhesus macaque
Procedure: These experiments once again used SIVmac251-infected, CD8-depleted animals, and again treatment was initiated at five days p.i. For this experiment, however, 250 mg/m^2 PA-001 (MGBG) was used and the animals were treated on alternate weeks, as is done in humans. Two animals were SIVmac251-infected, CD8-depleted, and PA-001 treated, and two were not drug treated, SIVmac251-infected, CD8-depleted controls. As of the time this study was conducted, the treated animals had received four doses of PA-001 and lived past day 55. In contrast, the non-treated animals developed AIDS and SIV encephalitis (SIVE) and in fact, one of the CD8-depleted, non-treated animals had died of AIDS and SIVE and the second non PA-001 treated animal was scheduled for sacrifice due to AIDS.
SIV-infected, CD8-depleted animals without PA-001 treatment (EJ02 and EL95) had higher counts of total monocytes (top) and the CD14+CD16+ subset (bottom). In fact, one of the untreated animals (EJ02) died of AIDS and SIVE at day 55 p.i.

SMILES | sensitivity of CD14/CD16+ macrophages from the normal patient [1] | activated monocytes killed (CD14+ CD16+ monocytes; 10 μM, five-day assay, monkey n=4) [%] | decrease of CD14+ CD16+ monocytes, dose dependence (CD14+ CD16+ monocytes; nonadherent PBMC cultures, five days) | levels of CD14+CD16+ monocytes in blood (SIVmac251 [2]; 200, 300, 400 mg/m^2 from five days p.i., by day 21 p.i.) | perivascular cuffs and virus in the CNS (SIVmac251 [2]; 21 days p.i., preliminary histopathological analysis) | SIV DNA in sorted blood macrophage subsets (SIVmac251 [2]; after the first and second dose, quantitative SIV PCR) | decrease in Mac387 stained monocyte/macrophage cell number in lymph node (SIVmac251 [2]; compared to untreated animals) | plasma virus versus control (SIVmac251 [2]; treated animals vs untreated control) | CD14+ and CD16+ monocyte populations (SIVmac251 [3]; detailed flow cytometry) | survival of treated animals (SIVmac251 [3]; four doses of 250 mg/m^2, alternate weeks) [days] | absolute numbers of total monocytes (SIVmac251 [3]; vs non-treated animals, FIG. 11)
CCNCCCNC/C=C\CNCCCNCC.Cl.Cl.Cl.Cl [CG47, N,N′-bis(3-ethylaminopropyl)-cis-but-2-ene-1,4-diamine tetrahydrochloride] | essentially unaffected | – | – | – | – | – | – | – | – | – | –
CC(/C=N/NC(=N)N)=N\NC(=N)N [MGBG] | – | 80 | dose-dependent decrease | depleted below detectable levels | did not have perivascular cuffs or detectable virus | no longer had any detectable SIV DNA | 50-80% | did not show significant differences | significant decreases | > 55 | lower absolute numbers
